Experimental findings from patent US8518957B2, “Methanocarba adenosine derivatives, pharmaceutical compositions, and method of reducing intraocular pressure” (The United States of America, as represented by the …, priority 2009, dated 2013) are described below.

The target in one assay is T1, human A1 AR (Homo sapiens, UniProt P30542).
T1 construct: expressed in transfected cells
T1 sequence (P30542 1-326): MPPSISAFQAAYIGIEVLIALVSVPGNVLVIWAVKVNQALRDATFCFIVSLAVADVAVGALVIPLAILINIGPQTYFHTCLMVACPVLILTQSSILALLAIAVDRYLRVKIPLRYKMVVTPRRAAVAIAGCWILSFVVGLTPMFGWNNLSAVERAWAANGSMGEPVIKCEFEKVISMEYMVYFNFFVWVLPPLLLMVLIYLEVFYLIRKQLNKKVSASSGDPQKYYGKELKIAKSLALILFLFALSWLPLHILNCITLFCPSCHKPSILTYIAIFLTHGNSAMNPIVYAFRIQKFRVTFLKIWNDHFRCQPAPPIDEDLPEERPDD
Nature of the assay: Radioligand binding at human A1 AR ([3H]NECA, membranes of CHO cells). In outline:
(§1)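 Membranes from CHO (hA1, hA3) or HEK-293 (hA2A) cells were pretreated with adenosine deaminase and incubated 60 min at 25° C in pH 7.5 Tris/10 mM MgCl2. Radioligands were A1 [3H]NECA 3.5 nM, A2A [3H]CGS21680 10 nM and A3 [125I]I-AB-MECA 0.34 nM. Bound ligand was filtered and Ki derived.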

In another assay the target is T2, hA2AAR (Homo sapiens, UniProt P29274).
T2 construct: expressed in transfected cells
In words: Radioligand binding at human A2A AR ([3H]CGS21680, membranes of HEK-293 cells). To be noted: for Ki: read-out: Affinity (Ki, nM), A2A. Summed up: as §1

The next assay deals with T3, human A3AR (Homo sapiens, UniProt P0DMS8).
T3 construct: expressed in transfected cells
T3 sequence (P0DMS8 1-318): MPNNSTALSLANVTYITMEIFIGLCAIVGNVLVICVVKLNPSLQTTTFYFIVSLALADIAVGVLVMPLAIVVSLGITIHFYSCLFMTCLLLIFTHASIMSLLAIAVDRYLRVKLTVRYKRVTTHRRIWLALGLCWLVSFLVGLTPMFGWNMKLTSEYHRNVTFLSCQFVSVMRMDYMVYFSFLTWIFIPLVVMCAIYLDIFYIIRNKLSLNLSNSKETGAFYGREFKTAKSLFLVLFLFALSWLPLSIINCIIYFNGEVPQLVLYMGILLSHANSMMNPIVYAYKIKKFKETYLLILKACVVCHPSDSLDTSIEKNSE
Nature of the assay: Cyclic AMP accumulation assay: inhibition of forskolin-stimulated cyclic AMP production in AR-transfected CHO cells. The class given is cell-based. The following applies: for % Inhibition of cAMP formation at hA3 AR: at 10 μM, in comparison to the maximal effect of full agonist NECA at 10 μM. How it is done:
Intracellular cyclic AMP levels were measured with a competitive protein binding method. […] CHO cells that expressed the recombinant human A3AR were harvested by trypsinization. After centrifugation and resuspended in medium, cells were planted in 24-well plates in 1.0 mL medium. After 24 h, the medium was removed and cells were washed three times with 1 mL DMEM, containing 50 mM HEPES, pH 7.4. […] After 45 min forskolin (10 μM) was added to the medium, and incubation was continued for an additional 15 min. […] The cell lysate was resuspended and stored at −20° C. For determination of cyclic AMP production, protein kinase A (PKA) was incubated with [^3H]cyclic AMP (2 nM) in K2HPO4/EDTA buffer (K2HPO4, 150 mM; EDTA, 10 mM), 20 μL of the cell lysate, and 30 μL 0.1 M HCl or 50 μL of cyclic AMP solution (0-16 pmol/200 μL for standard curve). Bound radioactivity was separated by rapid filtration through Whatman GF/C filters and washed once with cold buffer. Bound radioactivity was measured by liquid scintillation spectrometry.
Bound radioactivity was separated by rapid filtration through Whatman GF/C filters and washed the filters once with cold buffer. Bound radioactivity was measured with liquid scintillation spectrometry.
For orientation: Cyclic AMP is a second messenger, typically raised through Gs and lowered through Gi signalling.

T2 sequence (P29274 whole entry): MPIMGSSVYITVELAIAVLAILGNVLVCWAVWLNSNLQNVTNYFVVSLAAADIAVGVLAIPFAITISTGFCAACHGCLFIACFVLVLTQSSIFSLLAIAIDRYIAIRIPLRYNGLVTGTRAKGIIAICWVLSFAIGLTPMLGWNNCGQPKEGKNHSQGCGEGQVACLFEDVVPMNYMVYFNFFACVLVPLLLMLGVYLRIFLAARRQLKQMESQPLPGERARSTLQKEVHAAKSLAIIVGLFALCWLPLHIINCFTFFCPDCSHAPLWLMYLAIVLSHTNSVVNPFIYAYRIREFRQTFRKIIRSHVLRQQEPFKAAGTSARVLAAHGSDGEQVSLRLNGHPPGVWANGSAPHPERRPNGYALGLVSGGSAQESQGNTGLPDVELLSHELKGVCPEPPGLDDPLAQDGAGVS

As usually defined, the inhibition is the change of the read-out against control, counted positive when it falls. Low values mean a weak effect, high ones a strong effect. Turning to `CNC(=O)[C@@]12C[C@@H]1[C@@H](n1cnc3c(NCc4cccc(Cl)c4)nc(C#CCCCCc4cn(Cc5ccc(-n6sccc6=O)cc5)nn4)nc31)[C@H](O)[C@@H]2O` [Compound 19, (1S,2R,3S,4R,5S)-6-(3-Chlorobenzylamino)-(2-(1-(4-3-oxoisothiazol-2(3H)-yl)benzyl-1H-1,2,3-triazol-4-yphex-1-ynyl)-9H-purin-9-yl)-2′,3′-dihydroxybicyclo[3.1.0]hexane-β-carboxylic acid N-methylamide], the inhibition at 10 µM turned out to be 15% at human A1 AR and 49% on hA2AAR. Also, on human A3AR, the “% Inhibition of cAMP formation at hA3 AR” value is 75.9 ± 16.5%.
For `CNC(=O)[C@@]12C[C@@H]1[C@@H](n1cnc3c(NCc4cccc(Cl)c4)nc(C#CCCCCc4cn(-c5ccc(C(=O)O)cc5)nn4)nc31)[C@H](O)[C@@H]2O` [Compound 13, (1S,2R,3S,4R,5S)-4′-(6-(3-Chlorobenzylamino)-2-(6-(1-(4-carboxyl-phenyl)-1H-1,2,3-triazol-4-yl)hex-1-ynyl)-9H-purin-9-yl)-2′,3′-dihydroxybicyclo[3.1.0]hexane-1′-carboxylic acid N-methylamide] the same measures were 0%, 40% and 83.4 ± 13.1%.
What is called Ki is the dissociation constant of the complex between target and ligand, obtained from inhibition or displacement. `CNC(=O)[C@@]12C[C@@H]1[C@@H](n1cnc3c(NCc4cccc(Cl)c4)nc(C#CCCCCc4cn(-c5ccc(N)cc5)nn4)nc31)[C@H](O)[C@@H]2O` [Compound 12, (1S,2R,3S,4R,5S)-4′-(6-(3-Chlorobenzylamino)-2-(6-(1-(4-amino-phenyl)-1H-1,2,3-triazol-4-yl)hex-1-ynyl)-9H-purin-9-yl)-2′,3′-dihydroxybicyclo[3.1.0]hexane-1′-carboxylic acid N-methylamide] yielded an inhibition at 10 µM at human A1 AR of 3%. Further, the Ki at hA2AAR ([3H]37, HEK293 cells) was 5490 ± 1150 nM. In addition, on human A3AR, the “% Inhibition of cAMP formation at hA3 AR” value came to 44.3 ± 2.4%.
Turning to `CNC(=O)[C@@]12C[C@@H]1[C@@H](n1cnc3c(NCc4cccc(Cl)c4)nc(C#CCCCCc4cn(-c5ccc(F)c([N+](=O)[O-])c5)nn4)nc31)[C@H](O)[C@@H]2O` [Compound 11], at 10 µM the inhibition on human A1 AR was 8%. Further, the Ki on hA2AAR ([3H]37, HEK293 cells) is 6730 ± 280 nM. Also, the “% Inhibition of cAMP formation at hA3 AR” value on human A3AR came out at 116 ± 22%.
On to `C#CCCCCC#Cc1nc(NCc2cccc(Cl)c2)c2ncn(C3C(O)C(O)C4(C(=O)NC)CC34)c2n1` (stereo not drawn) [Compound 9, (1′S, 2′R, 3′S, 4′S, 5′S)-4′-[6-(3-Chlorobenzylamino)-2-(1,7-octadiynyl)-9H-purin-9-yl]-2′,3′-dihydroxybicyclo[3.1.0]hexane-1′-carboxylic acid N-methylamide], for which the Ki at hA2AAR ([3H]37, HEK293 cells) came out at 7040 ± 1430 nM. Besides, the “% Inhibition of cAMP formation at hA3 AR” value on human A3AR turned out to be 60.2 ± 17.0%. The “% Inhibition of cAMP accumulation at the hA3AR” value on human A3AR (concentration 10 μM, in comparison to full agonist NECA at 1 μM) was 60.2 ± 17.0%.
Take `CNC(=O)[C@@]12C[C@@H]1[C@@H](n1cnc3c(NCc4cccc(Cl)c4)nc(C#CCCCCc4cn(CCCCCCNC(=O)c5ccc(-c6c7ccc(=N)c(S(=O)(=O)O)c-7oc7c(S(=O)(=O)O)c(N)ccc67)c(C(=O)O)c5)nn4)nc31)[C@H](O)[C@@H]2O` [Compound 23]: the “% inhibition, A1” value at human A1 AR (inhibition of radioligand binding at 10 μM, [3H]36, CHO cells) is reported as “(0 ± 0%)”. Besides, at hA2AAR (inhibition of radioligand binding at 10 μM, [3H]37, HEK293 cells), the “% inhibition, A2A” value is recorded as “(23 ± 5%)”. Besides, the “% Inhibition of cAMP formation at hA3 AR” value on human A3AR is 37.8 ± 14.6%.
Turning to `CNC(=O)[C@@]12C[C@@H]1[C@@H](n1cnc3c(NCc4cccc(Cl)c4)nc(C#CCCCCc4cn(CCCCCCNC(=O)CCCC[C@@H]5SC[C@@H]6NC(=O)N[C@@H]65)nn4)nc31)[C@H](O)[C@@H]2O` [Compound 20, (1S,2R,3S,4R,5S)-6-(3-Chlorobenzylamino)-(2-(6-(1-(6-(5-(3aS,4S,6aR)-oxohexahydro-1H-thieno[3,4-d]imidazol-4-yl)pentanamido)hexyl-1H-1,2,3-triazol-4-yl)hex-1-ynyl)-9H-purin-9-yl)-2′,3′-dihydroxybicyclo[3.1.0]hexane-1′-carboxylic acid N-methylamide], the inhibition at 10 µM at human A1 AR stood at 0%; on hA2AAR it was 27%. Further, the “% Inhibition of cAMP formation at hA3 AR” value at human A3AR came to 55.6 ± 12.5%.
`CNC(=O)[C@@]12C[C@@H]1[C@@H](n1cnc3c(NCc4cccc(Cl)c4)nc(C#CCCCCc4cn(-c5ccc(N=C=S)cc5)nn4)nc31)[C@H](O)[C@@H]2O` [Compound 26, (1S,2R,3S,4R,5S)-6-(3-Chlorobenzylamino)-(2-(6-(1-(4-isothiocyante-phenyl)-1H-1,2,3-triazol-4-yl)hex-1-ynyl)-9H-purin-9-yl)-2′,3′-dihydroxybicyclo[3.1.0]hexane-1′-carboxylic acid N-methylamide]: the inhibition at 10 µM on human A1 AR was 2%; at hA2AAR, 28%. Moreover, at human A3AR, the “% Inhibition of cAMP formation at hA3 AR” value worked out at 19.5 ± 14.5%.
On human A1 AR, `CNC(=O)[C@@]12C[C@@H]1[C@@H](n1cnc3c(NCc4cccc(Cl)c4)nc(C#CCCCCc4cn(CCCCN)nn4)nc31)[C@H](O)[C@@H]2O` [Compound 16, (1S,2R,3S,4R,5S)-6-(3-Chlorobenzylamino)-(2-(6-(1-(4-aminobutyl)-1H-1,2,3-triazol-4-yl)hex-1-ynyl)-9H-purin-9-yl)-2′,3′-dihydroxybicyclo[3.1.0]hexane-1′-carboxylic acid N-methylamide] came in with an inhibition at 10 µM of 13%. Moreover, the Ki at hA2AAR ([3H]37, HEK293 cells) worked out at 1630 ± 350 nM. For the same molecule, the “% Inhibition of cAMP formation at hA3 AR” value on human A3AR worked out at 64.4 ± 12.4%.
On to `CNC(=O)[C@@]12C[C@@H]1[C@@H](n1cnc3c(NCc4cccc(Cl)c4)nc(-c4nnn(-c5ccc(N=C=S)cc5)c4CCCCc4cn(-c5ccc(N=C=S)cc5)nn4)nc31)[C@H](O)[C@@H]2O` [Compound 25, (1S,2R,3S,4R,5S)-6-(3-Chlorobenzylamino)-(2-(1,6-bis(4-isothiocyante-phenyl)-1H-bis(1,2,3-triazol-4-yl)hex-1-ynyl)-9H-purin-9-yl)-2′,3′-dihydroxybicyclo[3.1.0]hexane-1′-carboxylic acid N-methylamide], for which the inhibition at 10 µM was determined as 4% at human A1 AR and 40% at hA2AAR. For the same molecule, the “% Inhibition of cAMP formation at hA3 AR” value at human A3AR is recorded as 83.6 ± 7.2%.
For `CNC(=O)[C@@]12C[C@@H]1[C@@H](n1cnc3c(NCc4cccc(Cl)c4)nc(C#CCCCCc4cn(C56CC7CC(CC(C7)C5)C6)nn4)nc31)[C@H](O)[C@@H]2O` [Compound 18, (1S,2R,3S,4R,5S)-6-(3-Chlorobenzylamino)-(2-(6-(1-(adamantyl)-1H-1,2,3-triazol-4-yl)hex-1-ynyl)-9H-purin-9-yl)-2′,3′-dihydroxybicyclo[3.1.0]hexane-1′-carboxylic acid N-methylamide], the inhibition at 10 µM at human A1 AR was found to be 22%. Further, the inhibitory constant (Ki) at hA2AAR ([3H]37, HEK293 cells) amounted to 3280 ± 700 nM. In addition, the “% Inhibition of cAMP formation at hA3 AR” value at human A3AR is 27.8 ± 17.4%.
Consider `CNC(=O)[C@@]12C[C@@H]1[C@@H](n1cnc3c(NCc4cccc(Cl)c4)nc(C#CCCCCc4cn(-c5ccc(C(=O)CBr)cc5)nn4)nc31)[C@H](O)[C@@H]2O` [Compound 14, (1S,2R,3S,4R,5S)-6-(3-Chlorobenzylamino)-4-(2-(6-(4-(2-bromoacetyl)phenyl)-1H-1,2,3-triazol-4-yphex-1-ynyl)-9H-purin-9-yl)-2′,3′-dihydroxybicyclo[3.1.0]hexane-1′-carboxylic acid N-methylamide], for which 10 µM produced 12% inhibition on human A1 AR. The inhibitory constant (Ki) at hA2AAR ([3H]37, HEK293 cells) was determined as 5740 ± 730 nM. In addition, the “% Inhibition of cAMP formation at hA3 AR” value at human A3AR turned out to be 109 ± 12%.
`CNC(=O)[C@@]12C[C@@H]1[C@@H](n1cnc3c(NCc4cccc(Cl)c4)nc(C#CCCCCc4cn(CCNC(C)=O)nn4)nc31)[C@H](O)[C@@H]2O` [Compound 15, (1S,2R,3S,4R,5S)-6-(3-Chlorobenzylamino)-(2-(6-(1-(4-acetamidoethyl)-1H-1,2,3-triazol-4-yl)hex-1-ynyl)-9H-purin-9-yl)-2′,3′-dihydroxybicyclo[3.1.0]hexane-1′-carboxylic acid N-methylamide] gave an inhibition at 10 µM on human A1 AR of 12%. The Ki on hA2AAR ([3H]37, HEK293 cells) was 2440 ± 320 nM. The “% Inhibition of cAMP formation at hA3 AR” value at human A3AR came out at 93.6 ± 17.7%.
